# Measurements taken from US7429599B2, “Methods for treating or preventing an inflammatory or metabolic condition or inhibiting JNK” (Signal Pharmaceuticals, LLC, priority 2000, dated 2008).
# Where a name gives a salt, the structure may show the parent alone.
# Biological target: T1, His6-JNK2 (Homo sapiens, UniProt P45984)
# T1 construct: His6 (N)
# Assay: JNK2 Assay (c-Jun phosphorylation, 32P-ATP filter plate)
# Assay type: biochemical
# Settings: c-Jun phosphorylation reduced to 50% of control; GST-c-Jun(1-79), 11 μM ATP; read-out: IC50 value in the JNK2 Assay
# Experimental: To 10 μL of the test compound in 20%/DMSO/80% dilutien buffer consisting of 20 mM HELPS (pH 7.6), 0.1 mM; EDTA, 2.5 mM magnesium chloride, 0.004% Triton×100, 2 μg/mL leupeptin, 20 mM β-glycerolphosphate, 0.1 mM sodium vanadate, and 2 mM DTT in water is added 30 μL of 50 ng His6-JNK2 in the same dilution buffer. The mixture is preincubated for 30 minutes at room temperature. Sixty microliter of 10 μg GST-c-Jun(1-79) in assay buffer consisting of 20 mM HEPES (pH 7.6), 50 mM sodium chloride, 0.1 mM EDTA, 24 mM magnesium chloride, 1 mM DTT, 25 mM PNPP, 0.05% Triton×100, 11 μM ATP, and 0.5 μCi γ-^32P ATP in water is added and the reaction is allowed to proceed for 1 hour at room temperature. The c-Jun phosphorylation is terminated by addition of 150 μL of 12.5% trichloroacetic acid. After 30 minutes, the precipitate is harvested onto a filter plate, diluted with 50 μL of the scintillation fluid and quantified by a counter. The IC50 values are calculated as the concentration of the test compound at which the c-Jun phosphorylation is reduced to 50% of the control value.
# T1 sequence (P45984 whole entry): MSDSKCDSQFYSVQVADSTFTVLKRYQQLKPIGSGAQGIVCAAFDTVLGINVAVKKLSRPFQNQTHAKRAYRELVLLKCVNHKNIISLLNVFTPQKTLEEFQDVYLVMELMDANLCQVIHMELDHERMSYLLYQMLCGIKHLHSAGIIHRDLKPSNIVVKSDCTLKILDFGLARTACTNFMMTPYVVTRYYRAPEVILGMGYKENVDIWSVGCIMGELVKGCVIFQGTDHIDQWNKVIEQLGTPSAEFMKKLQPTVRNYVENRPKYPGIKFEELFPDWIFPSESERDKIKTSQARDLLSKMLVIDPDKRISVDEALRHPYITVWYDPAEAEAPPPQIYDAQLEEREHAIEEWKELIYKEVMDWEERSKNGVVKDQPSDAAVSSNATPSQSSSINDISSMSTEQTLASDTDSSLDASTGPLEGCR
row,IC50,SMILES
1,≤ 10 µM,O=C(c1ccc(Nc2nccc(-c3ccc(Cl)cc3)n2)cc1)N1CCOCC1 [Compound 17-133]
2,≤ 10 µM,O=C(c1ccc(Nc2nccc(-c3ccc(Cl)cc3)n2)cc1)N1CCN(Cc2ccc3c(c2)OCO3)CC1 [Compound 17-128]
3,≤ 1 µM,CCC(=O)N1CCN(C(=O)c2ccc(Nc3nccc(-c4ccc(Cl)cc4)n3)cc2)CC1 [Compound 17-37]
4,≤ 10 µM,CN(CCc1ccccn1)C(=O)c1ccc(Nc2nccc(-c3ccc(Cl)cc3)n2)cc1 [Compound 17-151]
5,≤ 10 µM,O=C(Nc1nc2ccccc2[nH]1)c1ccc(Nc2nccc(-c3ccc(Cl)cc3)n2)cc1 [Compound 17-121]
6,≤ 10 µM,O=C(NCCc1ccccn1)c1ccc(Nc2nccc(-c3ccc(Cl)cc3)n2)cc1 [Compound 17-118]
7,≤ 10 µM,CC(=O)c1ccc(N2CCN(C(=O)c3ccc(Nc4nccc(-c5ccc(Cl)cc5)n4)cc3)CC2)cc1 [Compound 17-134]
8,≤ 1 µM,"O=C(c1ccc(Nc2nccc(-c3ccc(Cl)cc3)n2)cc1)N1CCNCC1 [Compound 18, 4-{[4-(4-Chlorophenyl)pyrimidin-2-yl]amino}benzoic acid piperazine amide hydrochloride]"
9,≤ 1 µM,CC(=O)NC1CCN(C(=O)c2ccc(Nc3nccc(-c4ccc(Cl)cc4)n3)cc2)CC1 [Compound 20-1]
10,≤ 10 µM,CCN(C(C)=O)C1CCN(C(=O)c2ccc(Nc3nccc(-c4ccc(Cl)cc4)n3)cc2)C1 (centres unmarked) [Compound 17-162]
11,≤ 10 µM,O=CN1CCN(C(=O)c2ccc(Nc3nccc(-c4ccc(Cl)cc4)n3)cc2)CC1 [Compound 17-131]
12,≤ 10 µM,CC(=O)N1CCCN(C(=O)c2ccc(Nc3nccc(-c4ccc(Cl)cc4)n3)cc2)CC1 [Compound 17-160]
13,≤ 1 µM,CCN(Cc1ccncc1)C(=O)c1ccc(Nc2nccc(-c3ccc(Cl)cc3)n2)cc1 [Compound 17-147]
14,≤ 1 µM,O=C(NC1CCN(C(=O)c2ccc(Nc3nccc(-c4ccc(Cl)cc4)n3)cc2)CC1)c1cccs1 [Compound 20-3]
15,≤ 10 µM,O=C(c1ccc(Nc2nccc(-c3ccc(Cl)cc3)n2)cc1)N1CCN(c2ccccc2)CC1 [Compound 17-158]
16,≤ 10 µM,CN1CCN(CCCNC(=O)c2ccc(Nc3nccc(-c4ccc(Cl)cc4)n3)cc2)CC1 [Compound 17-164]
17,≤ 10 µM,O=C(c1ccc(Nc2nccc(-c3ccc(Cl)cc3)n2)cc1)N1CCN(CCO)CC1 [Compound 17-215]
18,≤ 10 µM,CCN1CCN(C(=O)c2ccc(Nc3nccc(-c4ccc(Cl)cc4)n3)cc2)CC1 [Compound 17-35]
19,≤ 10 µM,O=C(c1ccc(Nc2nccc(-c3ccc(Cl)cc3)n2)cc1)N1CCN(c2ccccn2)CC1 [Compound 17-148]
20,≤ 1 µM,CC(=O)N1CCN(C(=O)c2ccc(Nc3nccc(-c4ccc(SCCCO)cc4)n3)cc2)CC1 [Compound 17-33]
21,≤ 10 µM,COCC(=O)NC1CCN(C(=O)c2ccc(Nc3nccc(-c4ccc(Cl)cc4)n3)cc2)CC1 [Compound 20-6]

# Continued, compound first:
row,SMILES,IC50
1,CCOc1ccc(-c2ccnc(Nc3ccc(C(N)=O)cc3)n2)cn1 [Compound 3-23],≤ 1 µM
2,COCCNC(=O)c1ccc(Nc2nccc(-c3ccc(Cl)cc3)n2)cc1 [Compound 17-24],≤ 1 µM
3,NC(=O)c1ccc(Nc2nccc(-c3ccc4ccccc4c3)n2)cc1 [Compound 3-34],≤ 10 µM
4,CCN(CC)CCCNC(=O)c1ccc(Nc2nccc(-c3ccc(Cl)cc3)n2)cc1 [Compound 17-153],≤ 10 µM
5,CN1CCN(S(=O)(=O)c2ccc(-c3ccnc(Nc4ccc(C(N)=O)cc4)n3)cc2)CC1 [Compound 3-17],≤ 10 µM
6,COc1ccc(-c2ccnc(Nc3ccc(C(N)=O)cc3)n2)cn1 [Compound 3-24],≤ 1 µM
7,CN(C)C(=O)c1ccc(Nc2nccc(-c3ccc(Br)cc3)n2)cc1 [Compound 17-18],≤ 10 µM
8,O=C(NCCCCO)c1ccc(Nc2nccc(-c3ccc(Cl)cc3)n2)cc1 [Compound 17-106],≤ 10 µM
9,CN(C)CCCNC(=O)c1ccc(Nc2nccc(-c3ccc(Cl)cc3)n2)cc1 [Compound 17-154],≤ 1 µM
10,CN1CCCC1CCNC(=O)c1ccc(Nc2nccc(-c3ccc(Cl)cc3)n2)cc1 (centres unmarked) [Compound 17-152],≤ 10 µM
11,NC(=O)c1ccc(Nc2nccc(-c3ccc(Br)cc3)n2)cc1 [Compound 3-22],≤ 10 µM
12,CN1CCC(S(=O)(=O)c2ccc(-c3ccnc(Nc4ccc(C(N)=O)cc4)n3)cc2)CC1 [Compound 3-16],≤ 10 µM
13,O=C(NCCCO)c1ccc(Nc2nccc(-c3ccc(Cl)cc3)n2)cc1 [Compound 17-25],≤ 10 µM
14,CC(C)NC(=O)CN1CCN(C(=O)c2ccc(Nc3nccc(-c4ccc(SCCCO)cc4)n3)cc2)CC1 [Compound 17-32],≤ 1 µM
15,Cc1cnc(Nc2ccc(C(N)=O)cc2)nc1-c1ccc(Cl)cc1 [Compound 3-37],≤ 10 µM
16,COC(=O)CNC(=O)c1ccc(Nc2nccc(-c3ccc(Cl)cc3)n2)cc1 [Compound 17-91],≤ 10 µM
17,NC(=O)c1ccc(Nc2nccc(-c3ccc(SCCCO)cc3)n2)cc1 [Compound 3-14],≤ 1 µM
18,NC(=O)c1ccc(Nc2nccc(-c3ccc([N+](=O)[O-])cc3)n2)cc1 [Compound 3-27],≤ 10 µM
19,CCN(CC)C(=O)C1CCCN(C(=O)c2ccc(Nc3nccc(-c4ccc(Cl)cc4)n3)cc2)C1 (centres unmarked) [Compound 17-130],≤ 10 µM
20,CN(C)c1ccc(-c2ccnc(Nc3ccc(C(N)=O)cc3)n2)cn1 [Compound 3-25],≤ 1 µM
